Measurements taken from US10653779B2, “Formulations with reduced oxidation” (Genentech, Inc., priority 2013, dated 2020).
Entries after “also recorded” stand apart in the source; their conditions may differ. Each block holds one molecule with its values, some of them ahead of it.

Experiments:
mAb1 [1] = assay: mAb1 light stress, eight hours, with L-Trp and L-Met; Fab/Fc oxidation by papain digest RP-HPLC; assay type: physicochemical, human; conditions: label mAb1 = No Excipient
Description: L-tryptophan (L-Trp), an antioxidant used in protein formulations, has been recently shown to be photosensitive (Igarashi et al., Anal Sci 23(8):943-8 (2007)) and to have the ability to produce H2O2 upon light exposure. […] Control vials were wrapped in aluminum foil and treated similarly. After light exposure, solutions were prepared for analysis by reverse-phase HPLC. […] Following incubation, 900 μL of the solution was combined with 100 μL of 1 M dithiothreitol (DTT) and incubated for another thirty minutes at 37° C. Samples were then run on an Agilent, Inc. 1100/1200 HPLC system (Santa Clara, Calif.) equipped with UV detection at 280 nm in conjunction with a Varian, Inc. Pursuit 3 μm, 2 mm ID×250 mm diphenyl column (Palo Alto, Calif.). Mobile Phase A was 0.1% TFA in water. Mobile Phase B was 0.1% TFA in acetonitrile. The mobile phase gradient increased linearly from 34% B at 0 minutes to 43% B at 50.0 minutes, then to 95% B at 50.1 minutes. The gradient remained at 95% B until 60.1 minutes, and then decreased linearly from 95% B to 34% B between 60.1 and 60.2 minutes. The gradient remained at 34% B until the end of the cycle at 80.2 minutes. The column temperature was 65° C., total flow rate was 0.2 mL/min, and injection volume of each sample was 6 μL. Chromatograms were then integrated for quantification of oxidation.

mAb1 [2] = assay: mAb1 light stress study, 16 hours; Fab/Fc oxidation by RP-HPLC; assay type: physicochemical, human; conditions: for Fab oxidation increase over the control level (mAb1 Ref Mat): label mAb1 = No Excipient
Description: (§1) The fragments were reduced with DTT, and then separated and identified via Liquid Chromatography-Mass Spectrometry (LC-MS). […] Comparison of area integrated under the oxidized and native peaks was used to quantify HC Fab and Fc oxidation. […] By using the papain digest RP-HPLC method in the present study it was possible to investigate Trp residue oxidation by quantifying HC Fab oxidation, and Met residue oxidation by quantifying HC Fc oxidation.
Antioxidants were added at 1 mM. Glass vials containing these formulations were exposed to 250 W/m^2 light in an Atlas SunTest CPS+ Xenon Test Instrument (Chicago, Ill.). Control vials were wrapped in aluminum foil and treated similarly. After light exposure, solutions were prepared for analysis by reverse-phase HPLC as described above.

mAb1 [3] = assay: mAb1 Fenton stress study (H2O2 + Fe); Fab/Fc oxidation by RP-HPLC; assay type: physicochemical, human; conditions: 10 ppm H2O2, 0.2 mM Fe(III), 40° C. for 3 hours, no excipient
Description: Antioxidants were added at a final concentration of 1 mM. […] After incubation, each reaction was quenched by addition of 100 mM L-Met and then prepared for analysis by reverse-phase HPLC as described above.
The Fenton reaction, using a mixture of H2O2 and Fe ions, generates oxidation through a metal catalyzed, hydroxyl radical reaction (Prousek et al., Pure and Applied Chemistry 79(12):2325-2338 (2007)). This reaction generated Fab, i.e. tryptophan, oxidation in mAb1. The reaction was also carried out in the presence of select antioxidants that were useful against both AAPH and light induced oxidation as reported above. Data related to the antioxidant properties against Fenton mediated reaction were analyzed using the RP-HPLC assay as described above. The Fenton reaction used 10 ppm of H2O2 and 0.2 mM of Fe(III). The reaction was incubated at 40° C. for 3 hours, quenched with 100 mM L-Met and analyzed using RP-HPLC after papain digest. All samples were the average of three separate vials, and mAb1 control (Ref Mat) was one vial with five independent injections on the HPLC. […] In regards to protection against Fc oxidation, the tested excipients (other than salicylic acid) performed slightly better than L-Trp.

[4] = Photosensitivity screening: H2O2 formation by antioxidant candidates upon light exposure (Amplex Ultra Red Assay); assay type: physicochemical
Description: As a screening tool, antioxidant candidates were exposed to light for four hours at 250 W/m^2 and the resulting H2O2 formation was quantified by the Amplexassay. Specifically, antioxidants were prepared to 1 mM in 20 mM histidine acetate buffer at pH 5.5. The 1 mM antioxidant solutions were aliquoted into glass vials (2 mL/glass vial) and exposed to four hours of light at 250 W/m^2 in an Atlas SunTest CPS+ Xenon Test Instrument (Chicago, Ill.). Total UV dose was 90 watt-hours/square meter and total visible dose was 0.22 million lux hours over the 4-hour period. Control vials were wrapped in aluminum foil and treated similarly. The amount of hydrogen peroxide generated after exposure to light was measured using the Amplex® Ultra Red Assay (Invitrogen, Carlsbad, Calif.) following the manufacturer's recommended procedure. On addition of horseradish peroxidase (HRP), the dye reacted 1:1 stoichiometrically with H2O2, resulting in the production of fluorescent oxidation product resorufin. In this study, fluorescence readings were obtained using a Spectra Max M2 Micro-plate Reader (Molecular Devices, Sunnyvale, Calif.) with excitation and emission set at 560 nm and 590 nm, respectively. Final H2O2 concentrations were determined using a standard curve ranging from 0 μm to 20 μm. […]

mAb1 [5] = assay: mAb1 AAPH stress study; Fab/Fc oxidation by RP-HPLC; assay type: physicochemical, human; conditions: antioxidants at 1 mM; for Fab (Trp residue) oxidation of mAb1 after AAPH incubation: 24 hours at 40° C., label mAb1 = no excipient
Text: as §1
% Fab oxidation and % Fc oxidation were calculated as follows: […]
Antioxidants were added at 1 mM. […] After buffer exchange, each solution was prepared for analysis by reverse-phase HPLC as described above.

[6] = Cyclic voltammetry (CV) screening of oxidation potentials; assay type: physicochemical; conditions: for Oxidation Potential (anodic peak): glassy carbon working electrode, 0.2 M lithium perchlorate
Description: The oxidation/reduction characteristics of the compounds were investigated. Several compounds, including L-Trp and derivatives, were evaluated for the protection of Trp oxidation in proteins using cyclic voltammetry (CV) and rank ordered based on their oxidation potentials (Table 2). Specifically, the candidate antioxidants were dissolved in deionized water and then added to a 0.2 M lithium perchlorate electrolyte solution. […] Solutions were scanned from −0.10 V to +1.50 V at a scan rate of either 100 or 500 mV/sec. The analytical cell was purged for four minutes with nitrogen before scanning of each antioxidant solution. The input was a linear scan of the potential of a working electrode, and the output was measurement of the resulting current. […] Redox reactions were characterized by sharp increases or decreases in current (peaks). The potential at which an oxidation reaction occurred was referred to as the anodic peak potential (or oxidation potential), and the potential at which a reduction occurred was referred to as is the cathodic peak (or reduction) potential.

[7] = 16 hours of light at 250 W/m^2, excipient 1 mM
[8] = 1 mM in 20 mM histidine acetate pH 5.5, four hours of light at 250 W/m^2

Molecule: mAb1: monoclonal anti-DR5 antibody, drozitumab (CAS number 912628-39-8), human monoclonal IgG1
Fab oxidation of mAb1 (mAb1 [1]; 5 mg/mL mAb1, 8 h light at 250 W/m^2, L-Trp at 1 mM): 4%
Effect on Fc oxidation of mAb1 (in words) (mAb1 [1]; 8 h light at 250 W/m^2, L-Met 10, 25, 50, 100 mM added to 1 mM L-Trp): only a minor increase in Fc oxidation
Increase in Fc oxidation over the control level (mAb1 [2]; 16 hours of light at 250 W/m^2, no excipient): 40%
Fab oxidation increase over the control level (mAb1 Ref Mat) (mAb1 [2]; [7]): 3.5 fold
Oxidation in the Fab region of mAb1 over the control (in words) (mAb1 [3]): about four times the oxidation

Molecule: O=C(O)c1ccccc1O [Salicylic Acid]
(H2O2 produced by Compound)/(H2O2 produced by L-Trp) ([4]; pH 5.5): 0.03
H2O2 production upon light exposure compared to L-Trp (in words) ([4]; pH 5.5): very little H2O2; also recorded: did not produce much H2O2
Fc oxidation under light stress compared to no excipient control (in words) (mAb1 [2]; [7]): more Fc oxidation
Fab oxidation increase over the control level (mAb1 Ref Mat) (mAb1 [2]; [7]): 8 fold
Effect on AAPH-induced Fab oxidation (in words) (mAb1 [5]; AAPH 24 hours at 40° C.): almost no effect on Fab oxidation
Oxidation potential relative to L-Trp (in words) ([6]; cyclic voltammetry): higher oxidation potential than L-Trp
Oxidation Potential (anodic peak) [6]: 1.080 V vs Ag/AgCl

Molecule: Oc1ccc2[nH]ccc2c1 [5-Hydroxyindole, 5-Hydroxy Indole]
(H2O2 produced by Compound)/(H2O2 produced by L-Trp) [4, 8]: −0.08
H2O2 production upon light exposure compared to L-Trp (in words) ([4]; 1 mM, 20 mM L-His-acetate pH 5.5, 4 h light, 0.22 million lux hours): low levels of H2O2 production
Effect on light-induced Fab oxidation (in words) (mAb1 [2]; [7]): reducing Fab oxidation to near control levels
Fab (Trp residue) oxidation of mAb1 after AAPH incubation (mAb1 [5]): about 2%
Oxidation Potential (anodic peak) [6]: 0.580 V vs Ag/AgCl

(H2O2 produced by Compound)/(H2O2 produced by L-Trp) [4, 8]: 0.09
Fab (Trp residue) oxidation of mAb1 after AAPH incubation (mAb1 [5]): about 2%
Oxidation Potential (anodic peak) [6]: 0.565 V vs Ag/AgCl
Molecule: N[C@@H](Cc1c[nH]c2ccc(O)cc12)C(=O)O [5-Hydroxy-L-Trp, 5-Hydroxy-Tryptophan]
H2O2 production upon light exposure compared to L-Trp (in words) ([4]; 1 mM, 20 mM L-His-acetate pH 5.5, 4 h light, 0.22 million lux hours, listed as 5-hydroxy-L-tryptophan): about one tenth of the H2O2; also recorded: low levels of H2O2 production
Effect on light-induced Fab oxidation (in words) (mAb1 [2]; [7]): reducing Fab oxidation to near control levels
